Where a name gives a salt, the structure may show the parent alone.

One experiment has as its target 5-HT2B (Homo sapiens, UniProt P41595). Description: 5-HT2B antagonist functional activity. It counts as biochemical. Conditions: antagonist mode. The source says:
(§1) Further, the compounds of the invention may be tested in binding assays and functional activity assays by well known methods for other physiologically important receptors such as, but not limited to, the hERG channel, other serotonin receptors (specifically 5-HT1B and 5-HT1D receptors, lack of agonist activity at 5-HT2B receptors, 5-HT2C, 5-HT5, 5-HT6, and 5-HT7 receptors), dopaminergic receptors (specifically D1, D2, and D3), GABAA receptors, adrenergic receptors and monoamine transporters.

The next experiment concerns native GABAA receptors. Description: GABAA antagonism using native receptors in primary neuronal cultures (FLIPR calcium flux). It counts as cell-based. Conditions: against 10 μM GABA, rat cortical embryonic neurons. The method, then: Activity of compounds on native GABAA receptors is evaluated by monitoring calcium fluxes using a 96 well format FLIPR® system (Fluorometric Imaging Plate Reader (FLIPR®, Molecular Devices). Briefly, cortical embryonic neurons are dissociated from E18 rat embryos and plated at optimum density into black-walled, transparent bottom poly-D-lysine coated 96-well FLIPR® plates. After loading the cells with a calcium sensitive dye (Fluo4-AM, Molecular Devices), the cells are bathed in a solution containing low chloride (chloride replaced by gluconate). Under these conditions activation of GABAA receptors causes an efflux of chloride ions (in the direction of the chemical gradient), which results in membrane depolarization and consequently activation of voltage gated calcium channels (VGCCs). Calcium influx through VGCCs is recorded and analysed offline using the FLIPR® system. For a pharmacological validation of the assay, concentration response curves (CRC) are recorded for the standard agonist (GABA) and standard antagonist (Gabazine). […]
The antagonist effects of compounds are quantified using 10-point dose response curves by comparing the peak fluorescent responses to the agonist GABA in the presence and absence of compound. […] Antagonist effects are calculated as a percent of the assay window. […]
(In general: Calcium flux is commonly read through the fluorescence of an indicator in the cells.)

Another experiment addresses Dopamine D2 (Homo sapiens, UniProt P14416). Description: Dopamine D2 binding.
Source text: as §1

In the next experiment the target is 5-HT6 (Homo sapiens, UniProt P50406). Description: 5-HT6 binding.
Source text: as §1

In another experiment the target is Adrenergic alpha2A (Homo sapiens, UniProt P08913). Description: Adrenergic alpha2A binding.
Source text: as §1

For a further experiment, the target named is Norepinephrine Transport (Homo sapiens, UniProt P23975). Briefly: Norepinephrine transporter binding.
Source text: as §1

In the next experiment the target is Dopamine Transporter (Homo sapiens, UniProt Q01959). Briefly: Dopamine transporter binding.
Source text: as §1

Another experiment addresses T1, 5-HT2A Receptor (Rattus norvegicus, UniProt P14842).
T1 construct: samples of the frontal cortex and cerebellum are removed; from tissue; host or cells: rat brain (frontal cortex versus cerebellum), in vivo
Description: 5-HT2A receptor occupancy in vivo (MDL 100907 tracer). Conditions: male Sprague-Dawley rats, oral gavage, 1 hr. before tracer, absolute ED50. The method, then:
Briefly, male Sprague-Dawley rats (Harlan Sprague-Dawley, Indianapolis, Ind.) weighing approximately 230-280 grams are given ad lib access to food and water until the beginning of the 3-hr. experimental protocol. 1 mg/kg ketanserin (non-selective 5-HT2A antagonist) is used as a positive control to establish assay validity. Test compounds or control are administered by oral gavage in a vehicle comprised of 20% hydroxypropyl beta-cyclodextrin. MDL 100907 ((R)-(+)-α-(2,3-Dimethoxyphenyl)-1-[2-(4-fluorophenyl)ethyl]-4-piperidinemethanol), a selective 5-HT2A antagonist, is used as a tracer. […] It is at the time of tracer administration that RO is considered to be measured. […] The level of MDL 100907 tracer is measured in each cortical and cerebellar sample. RO is calculated using the well-established ratio method which employs a region of high receptor density representative of total binding (frontal cortex) normalized by an area without or with very low levels of receptor (cerebellum). […]
Cortex and cerebellar samples are weighed and placed in conical centrifuge tubes on ice. […] Standards are prepared by adding known quantities of analyte to brain tissue samples from non-treated rats and processing as described above. […]

5-HT6, sequence (P50406 whole entry, species assumed): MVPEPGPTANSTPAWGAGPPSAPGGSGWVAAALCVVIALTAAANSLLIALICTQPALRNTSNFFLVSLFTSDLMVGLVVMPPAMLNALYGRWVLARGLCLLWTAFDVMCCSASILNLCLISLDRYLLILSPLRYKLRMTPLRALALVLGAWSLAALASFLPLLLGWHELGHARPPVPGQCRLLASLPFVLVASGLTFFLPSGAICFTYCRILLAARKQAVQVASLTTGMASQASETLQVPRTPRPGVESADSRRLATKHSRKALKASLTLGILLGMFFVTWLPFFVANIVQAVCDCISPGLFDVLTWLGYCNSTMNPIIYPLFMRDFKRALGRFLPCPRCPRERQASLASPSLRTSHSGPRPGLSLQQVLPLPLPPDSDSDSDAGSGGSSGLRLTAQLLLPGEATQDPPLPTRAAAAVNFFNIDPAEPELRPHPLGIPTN
Dopamine D2, sequence (P14416 whole entry): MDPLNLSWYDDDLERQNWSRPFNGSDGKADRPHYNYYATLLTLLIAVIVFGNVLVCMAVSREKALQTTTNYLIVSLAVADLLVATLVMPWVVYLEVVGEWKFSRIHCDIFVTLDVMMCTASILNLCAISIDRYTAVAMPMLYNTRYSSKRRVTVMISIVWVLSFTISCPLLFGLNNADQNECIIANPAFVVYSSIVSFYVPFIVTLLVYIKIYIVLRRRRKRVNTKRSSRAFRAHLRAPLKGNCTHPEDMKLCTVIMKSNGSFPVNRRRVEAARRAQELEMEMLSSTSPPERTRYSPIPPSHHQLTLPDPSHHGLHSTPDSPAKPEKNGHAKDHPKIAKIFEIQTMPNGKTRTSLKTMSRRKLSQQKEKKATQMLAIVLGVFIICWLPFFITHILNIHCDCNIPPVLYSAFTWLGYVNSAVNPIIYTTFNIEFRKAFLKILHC
T1 sequence (P14842 whole entry): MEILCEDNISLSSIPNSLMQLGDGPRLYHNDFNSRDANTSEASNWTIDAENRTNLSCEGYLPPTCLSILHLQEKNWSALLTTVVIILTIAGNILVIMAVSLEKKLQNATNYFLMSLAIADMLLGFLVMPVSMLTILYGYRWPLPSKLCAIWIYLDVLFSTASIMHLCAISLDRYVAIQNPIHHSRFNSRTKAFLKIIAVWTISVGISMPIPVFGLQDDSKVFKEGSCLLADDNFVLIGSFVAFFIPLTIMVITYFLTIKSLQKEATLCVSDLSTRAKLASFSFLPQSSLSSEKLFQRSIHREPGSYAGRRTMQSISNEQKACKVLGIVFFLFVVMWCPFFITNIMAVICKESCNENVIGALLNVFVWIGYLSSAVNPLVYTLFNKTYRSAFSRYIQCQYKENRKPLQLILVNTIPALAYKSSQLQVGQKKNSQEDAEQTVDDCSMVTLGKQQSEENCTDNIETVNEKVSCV
Norepinephrine Transport, sequence (P23975 whole entry): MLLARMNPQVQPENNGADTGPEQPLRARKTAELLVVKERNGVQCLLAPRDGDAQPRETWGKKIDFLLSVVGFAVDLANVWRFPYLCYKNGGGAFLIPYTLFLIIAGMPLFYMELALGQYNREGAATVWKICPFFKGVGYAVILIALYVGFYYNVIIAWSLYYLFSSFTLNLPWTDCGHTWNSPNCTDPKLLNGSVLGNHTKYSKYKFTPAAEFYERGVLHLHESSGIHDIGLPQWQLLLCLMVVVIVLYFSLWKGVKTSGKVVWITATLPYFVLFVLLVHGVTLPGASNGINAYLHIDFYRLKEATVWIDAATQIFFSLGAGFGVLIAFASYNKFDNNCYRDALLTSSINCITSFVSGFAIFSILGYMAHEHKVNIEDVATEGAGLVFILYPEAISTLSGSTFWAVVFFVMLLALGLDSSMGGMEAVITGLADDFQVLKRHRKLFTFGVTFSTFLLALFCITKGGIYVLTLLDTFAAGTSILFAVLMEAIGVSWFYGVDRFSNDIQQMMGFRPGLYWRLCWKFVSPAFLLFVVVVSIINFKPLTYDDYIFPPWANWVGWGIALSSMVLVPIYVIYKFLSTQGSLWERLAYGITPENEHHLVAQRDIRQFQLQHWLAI
Dopamine Transporter, sequence (Q01959 whole entry): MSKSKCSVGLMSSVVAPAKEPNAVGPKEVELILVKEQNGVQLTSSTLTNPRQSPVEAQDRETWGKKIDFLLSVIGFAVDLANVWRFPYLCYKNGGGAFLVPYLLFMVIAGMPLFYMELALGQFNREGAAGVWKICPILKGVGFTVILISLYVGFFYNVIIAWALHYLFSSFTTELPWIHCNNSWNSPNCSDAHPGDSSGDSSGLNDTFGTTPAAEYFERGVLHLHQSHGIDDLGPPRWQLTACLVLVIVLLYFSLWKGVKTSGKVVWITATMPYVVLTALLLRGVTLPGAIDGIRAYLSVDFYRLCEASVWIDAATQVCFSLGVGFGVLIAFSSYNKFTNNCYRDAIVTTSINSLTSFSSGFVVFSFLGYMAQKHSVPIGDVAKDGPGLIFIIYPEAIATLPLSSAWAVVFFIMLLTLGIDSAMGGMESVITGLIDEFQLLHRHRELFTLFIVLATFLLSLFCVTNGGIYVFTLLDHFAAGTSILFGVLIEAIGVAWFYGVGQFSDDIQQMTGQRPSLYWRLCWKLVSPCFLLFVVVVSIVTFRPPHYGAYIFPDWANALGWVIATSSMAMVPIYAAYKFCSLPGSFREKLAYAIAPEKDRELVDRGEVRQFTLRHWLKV
5-HT2B, sequence (P41595 whole entry, species assumed): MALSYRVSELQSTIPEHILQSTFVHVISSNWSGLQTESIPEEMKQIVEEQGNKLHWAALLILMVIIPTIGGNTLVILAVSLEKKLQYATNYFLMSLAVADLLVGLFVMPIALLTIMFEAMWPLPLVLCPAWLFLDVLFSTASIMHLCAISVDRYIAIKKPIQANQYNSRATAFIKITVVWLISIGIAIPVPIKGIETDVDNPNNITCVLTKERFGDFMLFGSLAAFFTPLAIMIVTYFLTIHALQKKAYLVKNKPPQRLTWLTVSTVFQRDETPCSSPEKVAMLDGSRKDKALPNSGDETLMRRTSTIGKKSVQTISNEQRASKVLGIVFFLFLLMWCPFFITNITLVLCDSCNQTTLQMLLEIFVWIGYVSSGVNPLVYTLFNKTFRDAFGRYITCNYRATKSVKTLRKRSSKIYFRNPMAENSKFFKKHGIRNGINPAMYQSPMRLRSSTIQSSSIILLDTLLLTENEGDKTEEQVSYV
Adrenergic alpha2A, sequence (P08913 whole entry): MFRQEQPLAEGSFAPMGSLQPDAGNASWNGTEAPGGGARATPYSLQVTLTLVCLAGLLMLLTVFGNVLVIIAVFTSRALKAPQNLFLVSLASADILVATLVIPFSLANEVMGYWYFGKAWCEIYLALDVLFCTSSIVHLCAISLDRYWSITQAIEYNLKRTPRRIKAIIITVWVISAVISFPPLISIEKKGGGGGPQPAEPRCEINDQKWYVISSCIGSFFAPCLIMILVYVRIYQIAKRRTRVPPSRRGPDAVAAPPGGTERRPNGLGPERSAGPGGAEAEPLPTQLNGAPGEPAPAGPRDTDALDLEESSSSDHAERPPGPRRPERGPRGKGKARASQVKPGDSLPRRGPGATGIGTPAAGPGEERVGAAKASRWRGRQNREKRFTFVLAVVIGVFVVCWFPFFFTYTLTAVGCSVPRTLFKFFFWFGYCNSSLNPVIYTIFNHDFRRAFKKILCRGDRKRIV

For `Cc1ccc2c(c1)Oc1sc(C3CC3)cc1C(N1CCN(CC(C)(C)C(=O)O)CC1)=N2` [Example 2, 3-[4-(2-Cyclopropyl-8-methyl-thieno[2,3-b][1,5]benzoxazepin-4-yl)piperazin-1-yl]-2,2-dimethyl-propanoic acid dihydrochloride], at 5-HT2B, the Kb (as a rule, the equilibrium dissociation constant of an antagonist, usually derived from a functional assay) amounted to 0.0934 µM. For the same compound, in the experiment on native GABAA receptors, the concentration for half-maximal inhibition (IC50) (as a rule, the midpoint of a concentration-inhibition curve) was above 100 µM. Moreover, the inhibitory constant (Ki) (commonly the dissociation constant of the complex between target and ligand, obtained from inhibition or displacement) was 2.32 µM at Dopamine D2; above 5.83 µM at 5-HT6; 5.92 µM on Adrenergic alpha2A; above 0.671 µM on Norepinephrine Transport; above 0.867 µM at Dopamine Transporter. On 5-HT2A Receptor, the ED50 – broadly, the dose at which the effect has come halfway, by size or by number of responders – came to 0.41 mg/kg.

Source of the values: patent US9562057B2, “(Thieno[2,3-b][1,5]benzoxazepin-4-yl)piperazin-1-yl compounds as dual activity H1 inverse agonists/5-HT2A antagonists” (Eli Lilly and Company, priority 2013, dated 2017).
